According to US11084790B2, “Insoluble complex or solvate thereof, pharmaceutical composition and use thereof” (Fruithy Holdings Limited, priority 2017, dated 2021):

Columns and labels:
[1] = Test on the solubility in a simulated body fluid; format: physicochemical
Protocol: Test on the Solubility in a Simulated Body Fluid
The concentration of the drug dissolved in the PBS buffered solution was determined with an HPLC-a method.

[2] = Test on the solubility in media at different pH; format: physicochemical
Protocol: Test on the Solubility in Media at Different pH
About 200 mg of solid powders of Preparation Example 10 and Preparation Example 15 were added in a 500 mL phosphate buffered solution at different pH values (50 mmol/L, pH 5.5, pH 6.5, pH 7.4, and pH 8.0) respectively, placed into a dissolution tester, kept at a constant temperature of 37° C., and paddle stirred at 50 rpm for 72 hours. Appropriate amounts of the suspension were taken out at 15 min, 30 min, 45 min, 1 h, 2 h, 4 h, 6 h, 8 h, 24 h, 32 h, 48 h, and 72 h respectively, and centrifuged immediately (15000 rpm, 5 min). The supernatant was diluted with methanol by a factor of two. The concentration of the drug dissolved in the PB buffer solution was determined with an HPLC-b method.

[3] = 0.01 M PBS pH 7.4, 37° C., 5 min
[4] = 0.01 M PBS pH 7.4, 37° C., 15 min
[5] = 0.01 M PBS pH 7.4, 37° C., 30 min
[6] = 0.01 M PBS pH 7.4, 37° C., 24 h
[7] = phosphate buffer pH 5.5, 37° C., 0.25 h
[8] = phosphate buffer pH 5.5, 37° C., 0.5 h
[9] = phosphate buffer pH 5.5, 37° C., 0.75 h
[10] = phosphate buffer pH 5.5, 37° C., 1 h
[11] = phosphate buffer pH 5.5, 37° C., 2 h
[12] = phosphate buffer pH 5.5, 37° C., 4 h
[13] = phosphate buffer pH 5.5, 37° C., 6 h
[14] = phosphate buffer pH 5.5, 37° C., 8 h
[15] = phosphate buffer pH 5.5, 37° C., 24 h
[16] = phosphate buffer pH 5.5, 37° C., 32 h
[17] = phosphate buffer pH 5.5, 37° C., 48 h
[18] = phosphate buffer pH 5.5, 37° C., 72 h
[19] = phosphate buffer pH 6.5, 37° C., 0.25 h
[20] = phosphate buffer pH 6.5, 37° C., 0.5 h
[21] = phosphate buffer pH 6.5, 37° C., 0.75 h
[22] = phosphate buffer pH 6.5, 37° C., 1 h
[23] = phosphate buffer pH 6.5, 37° C., 2 h
[24] = phosphate buffer pH 6.5, 37° C., 4 h
[25] = phosphate buffer pH 6.5, 37° C., 6 h
[26] = phosphate buffer pH 6.5, 37° C., 8 h
[27] = phosphate buffer pH 6.5, 37° C., 24 h
[28] = phosphate buffer pH 6.5, 37° C., 32 h
[29] = phosphate buffer pH 6.5, 37° C., 48 h
[30] = phosphate buffer pH 6.5, 37° C., 72 h
[31] = phosphate buffer pH 7.4, 37° C., 0.25 h
[32] = phosphate buffer pH 7.4, 37° C., 0.5 h
[33] = phosphate buffer pH 7.4, 37° C., 0.75 h
[34] = phosphate buffer pH 7.4, 37° C., 1 h
[35] = phosphate buffer pH 7.4, 37° C., 2 h
[36] = phosphate buffer pH 7.4, 37° C., 4 h
[37] = phosphate buffer pH 7.4, 37° C., 6 h
[38] = phosphate buffer pH 7.4, 37° C., 8 h
[39] = phosphate buffer pH 7.4, 37° C., 24 h
[40] = phosphate buffer pH 7.4, 37° C., 32 h
[41] = phosphate buffer pH 7.4, 37° C., 48 h
[42] = phosphate buffer pH 7.4, 37° C., 72 h
[43] = phosphate buffer pH 8.0, 37° C., 0.25 h
[44] = phosphate buffer pH 8.0, 37° C., 0.5 h
[45] = phosphate buffer pH 8.0, 37° C., 0.75 h
[46] = phosphate buffer pH 8.0, 37° C., 1 h
[47] = phosphate buffer pH 8.0, 37° C., 2 h
[48] = phosphate buffer pH 8.0, 37° C., 4 h
[49] = phosphate buffer pH 8.0, 37° C., 6 h
[50] = phosphate buffer pH 8.0, 37° C., 8 h
[51] = phosphate buffer pH 8.0, 37° C., 24 h
[52] = phosphate buffer pH 8.0, 37° C., 32 h
[53] = phosphate buffer pH 8.0, 37° C., 48 h
[54] = phosphate buffer pH 8.0, 37° C., 72 h

Structure (SMILES): CCCCN1CCCCC1C(=O)Nc1c(C)cccc1C.CCCCN1CCCCC1C(=O)Nc1c(C)cccc1C.O=C(O)c1cc2ccccc2c(Cc2c(O)c(C(=O)O)cc3ccccc23)c1O [Preparation Example 15, bis(bupivacaine) pamoate]
- Compound concentration: Bupivacaine [1, 3]: 112.8 µM
- Compound concentration: Pamoic acid [1, 3]: 57.2 µM
- Compound concentration: Bupivacaine [1, 4]: 153.8 µM
- Compound concentration: Pamoic acid [1, 4]: 77.9 µM
- Compound concentration: Bupivacaine [1, 5]: 239.4 µM
- Compound concentration: Pamoic acid [1, 5]: 120.2 µM
- Compound concentration: Bupivacaine ([1]; 0.01 M PBS pH 7.4, 37° C., 1 h): 257.4 µM
- Compound concentration: Pamoic acid ([1]; 0.01 M PBS pH 7.4, 37° C., 1 h): 127.8 µM
- Compound concentration: Bupivacaine ([1]; 0.01 M PBS pH 7.4, 37° C., 2 h): 287.5 µM
- Compound concentration: Pamoic acid ([1]; 0.01 M PBS pH 7.4, 37° C., 2 h): 141.5 µM
- Compound concentration: Bupivacaine ([1]; 0.01 M PBS pH 7.4, 37° C., 6 h): 290.1 µM
- Compound concentration: Pamoic acid ([1]; 0.01 M PBS pH 7.4, 37° C., 6 h): 146.7 µM
- Compound concentration: Bupivacaine [1, 6]: 290.3 µM
- Compound concentration: Pamoic acid [1, 6]: 143 µM
- stability of the suspension (ratio between acid radical and basic group) ([1]; simulated body fluid): stable
- solubility ([1]; simulated body fluid, 0.01 M PBS pH 7.4, 37° C.): about 0.3 mM
- molar ratio of the solubility (bupivacaine to pamoic acid) ([2]; media at pH 5.5, pH 6.5, pH 7.4 and pH 8.0, remained for at least 72 hours): around 2.0
- Molar concentration of Bupivacaine [2, 7]: 0.050 mmol/L
- Molar concentration of Pamoic acid [2, 7]: 0.020 mmol/L
- Molar concentration of Bupivacaine [2, 8]: 0.070 mmol/L
- Molar concentration of Pamoic acid [2, 8]: 0.034 mmol/L
- Molar concentration of Bupivacaine [2, 9]: 0.140 mmol/L
- Molar concentration of Pamoic acid [2, 9]: 0.070 mmol/L
- Molar concentration of Bupivacaine [2, 10]: 0.196 mmol/L
- Molar concentration of Pamoic acid [2, 10]: 0.092 mmol/L
- Molar concentration of Bupivacaine [2, 11]: 0.198 mmol/L
- Molar concentration of Pamoic acid [2, 11]: 0.094 mmol/L
- Molar concentration of Bupivacaine [2, 12]: 0.198 mmol/L
- Molar concentration of Pamoic acid [2, 12]: 0.092 mmol/L
- Molar concentration of Bupivacaine [2, 13]: 0.198 mmol/L
- Molar concentration of Pamoic acid [2, 13]: 0.094 mmol/L
- Molar concentration of Bupivacaine [2, 14]: 0.198 mmol/L
- Molar concentration of Pamoic acid [2, 14]: 0.092 mmol/L
- Molar concentration of Bupivacaine [2, 15]: 0.192 mmol/L
- Molar concentration of Pamoic acid [2, 15]: 0.088 mmol/L
- Molar concentration of Bupivacaine [2, 16]: 0.196 mmol/L
- Molar concentration of Pamoic acid [2, 16]: 0.092 mmol/L
- Molar concentration of Bupivacaine [2, 17]: 0.198 mmol/L
- Molar concentration of Pamoic acid [2, 17]: 0.092 mmol/L
- Molar concentration of Bupivacaine [2, 18]: 0.190 mmol/L
- Molar concentration of Pamoic acid [2, 18]: 0.084 mmol/L
- Molar concentration of Bupivacaine [2, 19]: 0.046 mmol/L
- Molar concentration of Pamoic acid [2, 19]: 0.024 mmol/L
- Molar concentration of Bupivacaine [2, 20]: 0.076 mmol/L
- Molar concentration of Pamoic acid [2, 20]: 0.038 mmol/L
- Molar concentration of Bupivacaine [2, 21]: 0.138 mmol/L
- Molar concentration of Pamoic acid [2, 21]: 0.076 mmol/L
- Molar concentration of Bupivacaine [2, 22]: 0.202 mmol/L
- Molar concentration of Pamoic acid [2, 22]: 0.106 mmol/L
- Molar concentration of Bupivacaine [2, 23]: 0.204 mmol/L
- Molar concentration of Pamoic acid [2, 23]: 0.108 mmol/L
- Molar concentration of Bupivacaine [2, 24]: 0.202 mmol/L
- Molar concentration of Pamoic acid [2, 24]: 0.106 mmol/L
- Molar concentration of Bupivacaine [2, 25]: 0.198 mmol/L
- Molar concentration of Pamoic acid [2, 25]: 0.104 mmol/L
- Molar concentration of Bupivacaine [2, 26]: 0.198 mmol/L
- Molar concentration of Pamoic acid [2, 26]: 0.106 mmol/L
- Molar concentration of Bupivacaine [2, 27]: 0.198 mmol/L
- Molar concentration of Pamoic acid [2, 27]: 0.106 mmol/L
- Molar concentration of Bupivacaine [2, 28]: 0.202 mmol/L
- Molar concentration of Pamoic acid [2, 28]: 0.106 mmol/L
- Molar concentration of Bupivacaine [2, 29]: 0.200 mmol/L
- Molar concentration of Pamoic acid [2, 29]: 0.106 mmol/L
- Molar concentration of Bupivacaine [2, 30]: 0.196 mmol/L
- Molar concentration of Pamoic acid [2, 30]: 0.100 mmol/L
- Molar concentration of Bupivacaine [2, 31]: 0.038 mmol/L
- Molar concentration of Pamoic acid [2, 31]: 0.020 mmol/L
- Molar concentration of Bupivacaine [2, 32]: 0.080 mmol/L
- Molar concentration of Pamoic acid [2, 32]: 0.042 mmol/L
- Molar concentration of Bupivacaine [2, 33]: 0.192 mmol/L
- Molar concentration of Pamoic acid [2, 33]: 0.100 mmol/L
- Molar concentration of Bupivacaine [2, 34]: 0.240 mmol/L
- Molar concentration of Pamoic acid [2, 34]: 0.134 mmol/L
- Molar concentration of Bupivacaine [2, 35]: 0.246 mmol/L
- Molar concentration of Pamoic acid [2, 35]: 0.134 mmol/L
- Molar concentration of Bupivacaine [2, 36]: 0.242 mmol/L
- Molar concentration of Pamoic acid [2, 36]: 0.134 mmol/L
- Molar concentration of Bupivacaine [2, 37]: 0.234 mmol/L
- Molar concentration of Pamoic acid [2, 37]: 0.13 mmol/L
- Molar concentration of Bupivacaine [2, 38]: 0.232 mmol/L
- Molar concentration of Pamoic acid [2, 38]: 0.128 mmol/L
- Molar concentration of Bupivacaine [2, 39]: 0.226 mmol/L
- Molar concentration of Pamoic acid [2, 39]: 0.124 mmol/L
- Molar concentration of Bupivacaine [2, 40]: 0.226 mmol/L
- Molar concentration of Pamoic acid [2, 40]: 0.124 mmol/L
- Molar concentration of Bupivacaine [2, 41]: 0.230 mmol/L
- Molar concentration of Pamoic acid [2, 41]: 0.126 mmol/L
- Molar concentration of Bupivacaine [2, 42]: 0.224 mmol/L
- Molar concentration of Pamoic acid [2, 42]: 0.120 mmol/L
- Molar concentration of Bupivacaine [2, 43]: 0.036 mmol/L
- Molar concentration of Pamoic acid [2, 43]: 0.020 mmol/L
- Molar concentration of Bupivacaine [2, 44]: 0.092 mmol/L
- Molar concentration of Pamoic acid [2, 44]: 0.050 mmol/L
- Molar concentration of Bupivacaine [2, 45]: 0.252 mmol/L
- Molar concentration of Pamoic acid [2, 45]: 0.138 mmol/L
- Molar concentration of Bupivacaine [2, 46]: 0.328 mmol/L
- Molar concentration of Pamoic acid [2, 46]: 0.182 mmol/L
- Molar concentration of Bupivacaine [2, 47]: 0.336 mmol/L
- Molar concentration of Pamoic acid [2, 47]: 0.186 mmol/L
- Molar concentration of Bupivacaine [2, 48]: 0.338 mmol/L
- Molar concentration of Pamoic acid [2, 48]: 0.192 mmol/L
- Molar concentration of Bupivacaine [2, 49]: 0.338 mmol/L
- Molar concentration of Pamoic acid [2, 49]: 0.190 mmol/L
- Molar concentration of Bupivacaine [2, 50]: 0.334 mmol/L
- Molar concentration of Pamoic acid [2, 50]: 0.186 mmol/L
- Molar concentration of Bupivacaine [2, 51]: 0.326 mmol/L
- Molar concentration of Pamoic acid [2, 51]: 0.182 mmol/L
- Molar concentration of Bupivacaine [2, 52]: 0.328 mmol/L
- Molar concentration of Pamoic acid [2, 52]: 0.186 mmol/L
- Molar concentration of Bupivacaine [2, 53]: 0.336 mmol/L
- Molar concentration of Pamoic acid [2, 53]: 0.186 mmol/L
- Molar concentration of Bupivacaine [2, 54]: 0.336 mmol/L
- Molar concentration of Pamoic acid [2, 54]: 0.184 mmol/L
